The record followed here is ChEMBL document CHEMBL1201862, “PubChem BioAssay data set” (2004).

Each structure is given as a SMILES string.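 Method: 48-hour compound exposure of cells in 96-well plates, five concentrations, linear interpolation of endpoints. GI50: concentration for 50% inhibition of growth.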 Calls of active or inactive are those of the source. Cut-off read from the data, not from the text of the source: active = GI50 up to about 1.1 µM and inactive = higher. Some results are limits rather than exact numbers.

Common to all, as to experiment: growth of human tumour cells (NCI), 48 h
For experiment [1], the system named is RPMI-8226.
Experiment [2] relates to PC-3.
Experiment [3] has as its system Hs-578T.
The subject of experiment [4] is SN12C.
Experiment [5] has as its system A498.
In experiment [6] the test system is CAKI-1.
Experiment [7] concerns HOP-92.
Experiment [8] concerns LOX IMVI.
For experiment [9], the system named is MCF7.
Experiment [10] relates to SNB-19.
Experiment [11] deals with T47D.
Experiment [12] deals with SF-295.
Experiment [13] relates to OVCAR-8.
The subject of experiment [14] is UACC-62.
The test system of experiment [15] is HCC 2998.
The test system of experiment [16] is NCI-H23.
Experiment [17] concerns HT-29.

As to `Cc1ccc(S(=O)(=O)Nc2cc(O)nc3c2CCC3)cc1`, the GI50 is 43.2 µM (inactive) in [1]; > 100 µM (inactive) in experiment [2]; > 100 µM (inactive) in experiment [3]; > 100 µM (inactive) in experiment [4]; > 100 µM (inactive) in experiment [5]; > 100 µM (inactive) in [6]. Moreover, the GI50 in experiment [7], in experiment [8], in [9], in [10], in [11] and in [12] was > 100 µM (inactive) in each case. The GI50 in [13], in experiment [14], in [15], in [16] and in experiment [17] was > 100 µM (inactive) throughout.
As for `COc1ccc(S(=O)(=O)N2C(=O)CCC2C(=O)NN)cc1` (centres undefined), the GI50 in [1] is > 100 µM (inactive); in experiment [2], > 100 µM (inactive); in experiment [3], 61.8 µM (inactive); in experiment [4], > 100 µM (inactive); in experiment [5] it was > 100 µM (inactive); in experiment [6], > 100 µM (inactive). The GI50 in [7], in experiment [8], in [9], in experiment [10], in [11] and in experiment [12] was > 100 µM (inactive) in each case. Further, the GI50 in [13], in experiment [14], in experiment [15], in [16] and in experiment [17] was > 100 µM (inactive) in each case.
With `CN(C)C(=O)C(NCCO)c1ccccc1` (centres undefined), the GI50 in experiment [1] is 27.9 µM (inactive); in experiment [2], 89.1 µM (inactive); in experiment [3] it was > 100 µM (inactive); in [4], > 100 µM (inactive); in [5] it was > 100 µM (inactive); in experiment [6], > 100 µM (inactive). Moreover, the GI50 in [7] is > 100 µM (inactive); in experiment [8], > 100 µM (inactive); in experiment [9], > 100 µM (inactive); in experiment [10] it was > 100 µM (inactive); in experiment [11], 53.3 µM (inactive); in experiment [12], > 100 µM (inactive). Further, the GI50 is > 100 µM (inactive) in experiment [13]; 61.2 µM (inactive) in experiment [14]; > 100 µM (inactive) in experiment [15]; 83 µM (inactive) in experiment [16]; 57.7 µM (inactive) in [17].
`CCOC(=O)c1csc(C(CSCc2ccc(OC)cc2)N2C(=O)c3ccccc3C2=O)n1` (centres undefined): the GI50 in experiment [1] was 38 µM (inactive); in experiment [2] it was > 100 µM (inactive); in experiment [3] it was > 100 µM (inactive); in experiment [4], > 100 µM (inactive); in [5], > 100 µM (inactive); in [6], > 100 µM (inactive). For the same molecule, the GI50 in experiment [7] was > 100 µM (inactive); in experiment [8], 37.6 µM (inactive); in [9] it was 73.5 µM (inactive); in [10] it was > 100 µM (inactive); in experiment [11], 69.2 µM (inactive); in [12], > 100 µM (inactive). Also, the GI50 in experiment [13] is > 100 µM (inactive); in [14], 63.5 µM (inactive); in [15], > 100 µM (inactive); in experiment [16], > 100 µM (inactive); in experiment [17], 87.7 µM (inactive).
For the molecule `CCN(C(C)=O)c1cnc(/C=N/NC(N)=S)c2ccccc12`, the GI50 in experiment [1] is 3.08 µM (inactive); in experiment [2] it was 4.15 µM (inactive); in experiment [3] it was 80.5 µM (inactive); in experiment [4] it was 3.21 µM (inactive); in experiment [5], 19.8 µM (inactive); in [6], 3.3 µM (inactive). Also, the GI50 was > 40.4 µM (inactive) in experiment [7]; 1.38 µM (inactive) in [8]; 2.81 µM (inactive) in [9]; 3.49 µM (inactive) in experiment [10]; 5.69 µM (inactive) in experiment [11]; 3.14 µM (inactive) in experiment [12]. Besides, the GI50 in experiment [13] was 2.29 µM (inactive); in experiment [14] it was 3.3 µM (inactive); in experiment [15] it was 11 µM (inactive); in experiment [16] it was 3.36 µM (inactive); in experiment [17], 3.49 µM (inactive).
As to `O=c1[nH]c(=O)n(C2CC(O)C(CO)O2)c2nc3ccc4ccccc4c3nc12` (centres undefined), the GI50 in experiment [1] was 22.8 µM (inactive); in experiment [2], 73.8 µM (inactive); in experiment [3], 55.5 µM (inactive); in experiment [4], 51.2 µM (inactive); in experiment [5], > 100 µM (inactive); in [6] it was > 100 µM (inactive). Besides, the GI50 in experiment [7] was 25.6 µM (inactive); in experiment [8], 35.4 µM (inactive); in experiment [9], 46.3 µM (inactive); in experiment [10] it was 30.5 µM (inactive); in [11], 93.8 µM (inactive); in [12] it was 53.6 µM (inactive). Further, the GI50 in [13] was 79.1 µM (inactive); in experiment [14] it was 56.9 µM (inactive); in [15], 59 µM (inactive); in experiment [16], > 100 µM (inactive).
Take `N#C/C(=C/n1c(=S)[nH]c2ccccc21)C(N)=O`: the GI50 in experiment [1], in experiment [2], in [3], in [4], in [5] and in [6] was > 100 µM (inactive) throughout. Besides, the GI50 in experiment [7] is 11 µM (inactive); in experiment [8], > 100 µM (inactive); in experiment [9], > 100 µM (inactive); in [10] it was > 100 µM (inactive); in experiment [11], > 100 µM (inactive); in [12], > 100 µM (inactive). For the same molecule, the GI50 in experiment [13], in [14], in [15], in experiment [16] and in experiment [17] was > 100 µM (inactive) throughout.
In the case of `O=C(O)C(SC1=NC(=O)C2(NN1)c1ccccc1-c1ccccc12)SC1=NC(=O)C2(NN1)c1ccccc1-c1ccccc12`, the GI50 is 7.33 µM (inactive) in [1]; > 10 µM (inactive) in experiment [2]; > 10 µM (inactive) in [3]; > 10 µM (inactive) in experiment [4]; > 10 µM (inactive) in [5]; > 10 µM (inactive) in experiment [6]. Moreover, the GI50 is > 10 µM (inactive) in [7]; 9.02 µM (inactive) in [8]; 8.67 µM (inactive) in [9]; > 10 µM (inactive) in experiment [10]; 6.89 µM (inactive) in experiment [11]; > 10 µM (inactive) in experiment [12]. The GI50 in experiment [13], in experiment [14], in experiment [15], in experiment [16] and in [17] was > 10 µM (inactive) throughout.
For the molecule `CC[C@@]1(O)C(=O)OCc2c1cc1n(c2=O)Cc2c-1nc1ccccc1c2/C=N\NC(=O)C(N)Cc1c[nH]cn1` (some centres undefined), the GI50 in [1] is 0.356 µM (active); in experiment [2], 0.644 µM (active); in [3], > 64.9 µM (inactive); in [4], 0.0673 µM (active); in experiment [5], 0.857 µM (active); in [6], 0.147 µM (active). Besides, the GI50 in experiment [7] is 1.1 µM (active); in experiment [8] it was 0.131 µM (active); in [9], 0.0885 µM (active); in experiment [10], 0.0908 µM (active); in experiment [11], 0.158 µM (active); in [12], 0.132 µM (active). For the same molecule, the GI50 in experiment [13] was 0.184 µM (active); in experiment [14] it was 0.0723 µM (active); in experiment [15] it was 1.51 µM (inactive); in experiment [16], 0.111 µM (active); in [17] it was 2.1 µM (inactive).
On to `COc1cccc([C@@H]2C/C(=N\NC(=O)C(=O)N[C@@H](C)c3ccccc3)c3ccccc3N2)c1`, for which the GI50 in experiment [1] is 32.4 µM (inactive); in experiment [2], > 100 µM (inactive); in experiment [3] it was 23.7 µM (inactive); in experiment [4] it was > 100 µM (inactive); in experiment [5] it was > 100 µM (inactive); in experiment [6], 25.8 µM (inactive). The GI50 in [7] was 30.5 µM (inactive); in [8], > 100 µM (inactive); in experiment [9], 7.05 µM (inactive); in experiment [10], 24.6 µM (inactive); in experiment [11] it was 51.6 µM (inactive); in experiment [12] it was 73.1 µM (inactive). For the same molecule, the GI50 is 9.31 µM (inactive) in [14] and > 100 µM (inactive) in experiment [15].
With `COC(=O)/C(=N\N)C(C(=O)C(=O)Nc1cc(Cl)ccc1Cl)c1nc2ccc([N+](=O)[O-])cc2nc1O` (centres undefined), the GI50 in experiment [1] was > 100 µM (inactive); in experiment [2], > 100 µM (inactive); in experiment [3], 47.9 µM (inactive); in [4], > 100 µM (inactive); in experiment [5], > 100 µM (inactive); in experiment [6], > 100 µM (inactive). Also, the GI50 in [7], in experiment [8], in [9], in experiment [11], in [12] and in experiment [13] was > 100 µM (inactive) in each case. Besides, the GI50 in experiment [14], in experiment [15], in experiment [16] and in experiment [17] was > 100 µM (inactive) in each case.
Consider `CCOP(=O)(OCC)/C(C#N)=C/c1c(C)[nH]c2ccccc12`, for which the GI50 in experiment [1], in [2], in [3], in [4], in experiment [5] and in [6] was > 100 µM (inactive) in each case. The GI50 in experiment [7], in [8], in [9], in experiment [10], in experiment [11] and in [12] was > 100 µM (inactive) each time. Also, the GI50 in experiment [13], in experiment [14], in [15], in experiment [16] and in experiment [17] was > 100 µM (inactive) in each case.
